The nature of assay [1]: N-tagging of Alexa-350 ADNGK peptide with orthogonal affinity tags, reverse phase HPLC. The following applies: 5 mM of each N-tag, 4 hours at 37° C., pH 7.5. The method, then: A peptide with the sequence ADNGK (SEQ ID NO: 1) was purchased with its N-terminal Fmoc protecting group still in place. This peptide was reacted with NHS-activated fluorophore Alexa-350 (ThermoFisher, A10168) before the Fmoc group was removed using piperidine and the peptide was purified by preparative HPLC.
We treated this peptide with the N-tags form examples 7 and 10, either separately or in combination. This labeling done for 4 hours at 37° C. with 5 mM of each N-tag, 100 mM of sodium phosphate buffered to pH 7.5 and 10% acetonitrile. The resulting species were analyzed by reverse phase HPLC (see, e.g., FIG. 14).

Assay [2] has as its target GST (Schistosoma japonicum, UniProt P08515). The assay is described as follows: Photo-crosslinking of aziethyl glutathione to GST, whole-protein LCMS. The format is biochemical. The following applies: 1 mM, 7 mg/ml GST, 337-nm light, 30 minutes. The method, then: Aziethyl chloride was anchored to glutathione. 25 mg of glutathione and 5 mg of TCEP were dissolved in 2 ml of methanol, 1 ml of water and 50 ul of TEA. To this were added 41 ul of the aziethyl chloride-alkene mixture synthesized in example 19. The mixture was stirred overnight, lyophilized and resuspended in 2.6 ml of water to make a 30-mM solution. This aziethyl glutathione solution was used without any purification.
7 mg/ml of GST was incubated with 0 or 1 mM of aziethyl glutathione. This mixture was placed beneath 337-nm light source (Laser Science, Inc. VSL-337ND-S) for either 0 or 30 minutes and then subjected to whole-protein LCMS.

Assay [3] concerns modified RNase H containing a single cysteine. The assay is described as follows: In vitro intraprotein photo-crosslinking, denaturing SDS-PAGE. The assay is classed as biochemical. Particulars: mercury arc lamp, 310-370 nm. The text has this: A modified RNase H containing a single cysteine was expressed, purified, alkylated with isoazipropyl chloride and repurified as above.
The alkylated protein was illuminated with a mercury arc lamp through filters selecting for light in the 310-370-nm range.

For assay [4] the test system is unchanged. The assay is described as follows: Chemical anchoring of crosslinker to protein cysteine, Ellman's assay. The assay is classed as biochemical. Particulars: 10 ul crosslinker, 1 hour at 37° C., pH 8.6. The method, then:
A modified RNase H containing a single cysteine was expressed in E. coli and purified and purified by Ni-IMAC and heparin chromatography.
To 2.75 mg of this protein in 20 ml of 100-mM bicine, 1-mM TCEP, 600-mM NaCl, 100-mM KCl, pH 8.6 was added either 0 or 10 ul of isoazipropyl chloride. These mixtures were incubated for 1 hour at 37° C. The proteins were repurified by heparin chromatography to remove TCEP and isoazipropyl chloride, and the number of free cysteines per protein was determined using Ellman's assay.

Assay [5] has as its system GFP. The format is cell-based, S. cerevisiae. The following applies: 365-nm diode, 1 minute. On the procedure:
S. cervisae was made to express GFP containing isoazipropyl chloride or isoazibutyl chloride as described above. These cells were illuminated by a 365-nm diode (a Prizmatix Mic-LED-365 powered by a BLCC-02 at 0.5 ampere) for 1 minute and then cryogenically ground. Their protein was run on a denaturing SDS-PAGE gel to look for higher-molecular weight species resulting from crosslinking between the two GFP monomers (see e.g., FIG. 41).

Sequence of GST (P08515 2-218): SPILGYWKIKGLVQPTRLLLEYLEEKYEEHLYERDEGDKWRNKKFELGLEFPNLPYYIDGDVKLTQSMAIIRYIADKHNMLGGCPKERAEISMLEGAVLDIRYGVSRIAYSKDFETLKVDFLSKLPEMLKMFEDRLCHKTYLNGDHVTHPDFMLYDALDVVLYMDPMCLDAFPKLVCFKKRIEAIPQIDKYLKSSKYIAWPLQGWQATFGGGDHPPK

Take `C[C@@H]1NC(=O)N[C@@H]1CCCCCC(=O)N(C)Cc1cccc(C=O)n1` [compound 10]: in assay [1], the “labeling of peptide N-termini” value was “efficiently label the peptides”. On to aziethyl glutathione, for which the “GST molecules shifted as expected from covalent crosslinking” value in assay [2] amounted to 40%. Consider `CC1(CCl)N=N1` [isoazipropyl chloride], for which the “appearance of faster-migrating band (intramolecular crosslink)” value in assay [3] is “new faster-migrating band to appear”. In assay [4], the “free cysteines per protein” value stood at 0.15 and the “protein's cysteines anchored by the crosslinker” value is on record as 85%. In the case of `CC1(CSC[C@H](N)C(=O)O)N=N1` [Isoazipropyl cysteine, isoazipropyl cysteine], the “interprotein crosslinking of the proteins” value (“interprotein crosslinking” for short) in assay [5] was 2%. Regarding `NC(=O)CI` [iodoacetamide, reference compound], in assay [3], the “appearance of faster-migrating band (intramolecular crosslink)” value was “did not appear”. In the case of `CC1(CCSC[C@H](N)C(=O)O)N=N1` [Isoazibutyl cysteine, isoazibutyl cysteine], the “interprotein crosslinking” value in assay [5] amounted to 8%.

Regarding `O=Cc1cccc(C(=O)NO)n1` [hydroxamate affinity tag], the “labeling of peptide N-termini” value in assay [1] is “efficiently label the peptides”.

Turning to allylcysteine [reference compound], in assay [5], the “interprotein crosslinking” value is given as “lack of similar crosslinking”.

Source of the values: patent US12472448B2, “Compact hydroxamate-based affinity tags for artificially tagging biological macromolecules” (The Board of Trustees of the Leland Stanford Junior …, priority 2019, dated 2025).
